Results published in patent US20230085307A1, “PYRIDAZINONE COMPOUND AND HERBICIDE” (NISSAN CHEMICAL CORPORATION, priority 2019, published 2023).
Values belong to the compound of their own block, whether it stands above or below them.

Columns and labels:
[1] = tested on: false cleavers; test: Test Example 5: herbicidal effect by foliage application, plastic box (Table 20, symbol Q); type: in vivo, false cleavers (Galium spurium); details: for Q: false cleavers, herbicidal effect grade / herbicidal effect on false cleavers (Q): foliage application, three weeks after application
How it was run: (§1)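 Foliar spray test: emulsion formulation diluted in water to a set application rate, sprayed onto 14-day-old plants raised in diluvial soil at 25° C to 30° C under glass. Both herbicidal effect and crop effect rated visually three weeks later.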

[2] = tested on: corn; test: Test Example 5: effect on crop by foliage application, plastic box (Table 20, symbol c); type: in vivo; details: 320 g/ha, three weeks after application
How it was run: as §1

[3] = tested on: wheat; test: Test Example 5: effect on crop by foliage application, plastic box (Table 20, symbol e); type: in vivo; details: 320 g/ha, three weeks after application
How it was run: as §1

[4] = tested on: wheat; test: Test Example 4: effect on crop by soil treatment (Table 19, symbol e); type: in vivo; details: amount of applied herbicide 320 g/ha
How it was run: (§2)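 Herbicidal effect was rated 3 weeks after treatment, using the scoring criteria of an earlier test. The compound, formulated as an emulsion and diluted in water to a set herbicide amount, had been sprayed uniformly on soil over freshly sown seeds. Growth took place in a greenhouse at 25° C. to 30° C.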

[5] = tested on: beet; test: Test Example 5: effect on crop by foliage application, plastic box (Table 20, symbol f); type: in vivo; details: 320 g/ha, three weeks after application
How it was run: as §1

[6] = tested on: beet; test: Test Example 4: effect on crop by soil treatment (Table 19, symbol f); type: in vivo; details: amount of applied herbicide 320 g/ha
How it was run: as §2

[7] = tested on: corn; test: Test Example 4: effect on crop by soil treatment (Table 19, symbol c); type: in vivo; details: amount of applied herbicide 320 g/ha
How it was run: as §2

[8] = tested on: soybean; test: Test Example 5: effect on crop by foliage application, plastic box (Table 20, symbol d); type: in vivo; details: 320 g/ha, three weeks after application
How it was run: as §1

[9] = tested on: rapeseed; test: Test Example 4: effect on crop by soil treatment (Table 19, symbol g); type: in vivo; details: amount of applied herbicide 320 g/ha
How it was run: as §2

[10] = tested on: directly sowed rice; test: Test Example 3: effect on crop by foliage application, Wagner pot (Table 18, symbol b); type: in vivo; details: 320 g/ha
How it was run: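 Plants were sown in alluvial soil held under 0.1–0.5 cm standing water and grown 14 days in a greenhouse at 25–30 °C. An emulsifiable formulation, water-diluted to the set dose, was then sprayed onto the foliage, and effects were scored three weeks later using previously defined criteria.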

[11] = tested on: soybean; test: Test Example 4: effect on crop by soil treatment (Table 19, symbol d); type: in vivo; details: amount of applied herbicide 320 g/ha
How it was run: as §2

[12] = tested on: transplanted rice; test: Test Example 1: effect on crop, application before weed generation under submerged conditions (Table 16, symbol a); type: in vivo; details: amount of applied herbicide 320 g/ha
Excerpt: [Test Example 1] Herbicidal Activity Test by Application before Weed Generation under Submerged Conditions After alluvial soil was placed into 1/10000 are of Wagner pot, water was poured and mixed to form a submerged condition having a water depth of 4 cm. Seeds of late watergrass, Japanese bulrush, and oval-leafed pondweed were sowed in a mixed manner in the aforementioned pot, and then 2.5 leaf stage rice plant seedlings were transplanted thereto. On the day of sowing seeds, the emulsion agent of the compound of the present invention prepared according to Formulation Example 2 was diluted with water so as to achieve a predetermined herbicide amount, and the diluted emulsion agent was applied to the surface of the water. The pot was placed in a greenhouse at 25° C. to 30° C. for growth of the plants. Three weeks after the herbicide application, the effect of the herbicide on each plant was evaluated according to the following criteria. Evaluation Criteria 5: Herbicidal rate of 90% or more (almost completely withered) 4: Herbicidal rate of 70% or more and less than 90% 3: Herbicidal rate of 40% or more and less than 70% 2: Herbicidal rate of 20% or more and less than 40% 1: Herbicidal rate of 5% or more and less than 20% 0: Herbicidal rate of 5% or less (almost no effect)

[13] = tested on: rapeseed; test: Test Example 5: effect on crop by foliage application, plastic box (Table 20, symbol g); type: in vivo; details: 320 g/ha, three weeks after application
How it was run: as §1

Structure (SMILES): CCCC(=O)Oc1c(C)nn(C)c(=O)c1-c1c(-c2ccccc2OC)sc2cc(F)ccc12 [3-004]
- Q: false cleavers, herbicidal effect grade ([1]; 320 g/ha): 5 (Herbicidal rate of 90% or more (almost completely withered))

Structure (SMILES): COc1ccc(-c2sc3cc(F)ccc3c2-c2c(O)c(C)nn(C)c2=O)cc1 [3-005]
- Q: false cleavers, herbicidal effect grade ([1]; 320 g/ha): 4 (Herbicidal rate of 70% or more and less than 90%)

Structure (SMILES): CCCC(=O)Oc1c(C)nn(C)c(=O)c1-c1c(-c2ccccc2OCC)sc2cc(F)ccc12 [3-007]
- Q: false cleavers, herbicidal effect grade ([1]; 320 g/ha): 5 (Herbicidal rate of 90% or more (almost completely withered))

Structure (SMILES): CCCC(=O)Oc1c(C)nn(C)c(=O)c1-c1c(-c2ccccc2OCC)sc2cc(Cl)ccc12 [3-040]
- Q: false cleavers, herbicidal effect grade ([1]; 320 g/ha): 5 (Herbicidal rate of 90% or more (almost completely withered))

Structure (SMILES): CCCC(=O)Oc1c(C)nn(C)c(=O)c1-c1c(-c2ccccc2OC)sc2cc(C)ccc12 [3-050]
- Q: false cleavers, herbicidal effect grade ([1]; 224 g/ha): 4 (Herbicidal rate of 70% or more and less than 90%)

Structure (SMILES): CCCC(=O)Oc1c(C)nn(C)c(=O)c1-c1c(-c2ccccc2OCC)sc2cc(C)ccc12 [3-054]
- Q: false cleavers, herbicidal effect grade ([1]; 304 g/ha): 5 (Herbicidal rate of 90% or more (almost completely withered))

Structure (SMILES): COc1cc(F)ccc1-c1sc2cc(C)ccc2c1-c1c(O)c(C)nn(C)c1=O [3-055]
- Q: false cleavers, herbicidal effect grade ([1]; 320 g/ha): 4 (Herbicidal rate of 70% or more and less than 90%)

Structure (SMILES): CCCC(=O)Oc1c(C)nn(C)c(=O)c1-c1c(-c2ccccc2OCC)sc2cc(OC)ccc12 [3-071]
- Q: false cleavers, herbicidal effect grade ([1]; 320 g/ha): 5 (Herbicidal rate of 90% or more (almost completely withered))

Structure (SMILES): CCOc1cc(F)ccc1-c1sc2cc(OC)ccc2c1-c1c(O)c(C)nn(C)c1=O [3-078]
- Q: false cleavers, herbicidal effect grade ([1]; 80 g/ha): 5 (Herbicidal rate of 90% or more (almost completely withered))

Structure (SMILES): CCCC(=O)Oc1c(C)nn(C)c(=O)c1-c1c(-c2ccc(F)cc2OCC)sc2cc(OC)ccc12 [3-079]
- Q: false cleavers, herbicidal effect grade ([1]; 320 g/ha): 5 (Herbicidal rate of 90% or more (almost completely withered))

Structure (SMILES): COc1ccc2c(-c3c(O)c(C)nn(C)c3=O)c(-c3ccc4c(c3)OCCO4)sc2c1 [3-082]
- Q: false cleavers, herbicidal effect grade ([1]; 320 g/ha): 5 (Herbicidal rate of 90% or more (almost completely withered))

Structure (SMILES): CCCC(=O)Oc1c(C)nn(C)c(=O)c1-c1c(-c2ccc3c(c2)OCCO3)sc2cc(OC)ccc12 [3-083]
- Q: false cleavers, herbicidal effect grade ([1]; 320 g/ha): 5 (Herbicidal rate of 90% or more (almost completely withered))

Structure (SMILES): CCOc1ccc2c(-c3c(O)c(C)nn(C)c3=O)c(-c3ccccc3OC)sc2c1 [3-089]
- Q: false cleavers, herbicidal effect grade ([1]; 320 g/ha): 5 (Herbicidal rate of 90% or more (almost completely withered))

Structure (SMILES): CCOc1ccc2c(-c3c(O)c(C)nn(C)c3=O)c(-c3ccccc3OCC)sc2c1 [3-093]
- Q: false cleavers, herbicidal effect grade ([1]; 320 g/ha): 5 (Herbicidal rate of 90% or more (almost completely withered))

Structure (SMILES): CCCC(=O)Oc1c(C)nn(C)c(=O)c1-c1c(-c2ccccc2OCC)sc2cc(OCC)ccc12 [3-094]
- Q: false cleavers, herbicidal effect grade ([1]; 323 g/ha): 5 (Herbicidal rate of 90% or more (almost completely withered))

Structure (SMILES): CCCC(=O)Oc1c(C)nn(C)c(=O)c1-c1c(-c2ccc(F)cc2OCC)sc2cc(OCC)ccc12 [3-096]
- Q: false cleavers, herbicidal effect grade ([1]; 320 g/ha): 5 (Herbicidal rate of 90% or more (almost completely withered))

Structure (SMILES): CCCC(=O)Oc1c(C)nn(C)c(=O)c1-c1c(-c2ccccc2OC)sc2cc(F)c(F)cc12 [5-012]
- Herbicidal effect by foliage application, Q: false cleavers ([1]; amount of applied herbicide 320 g/ha, foliage application after 14-day growth, evaluated three weeks after application): 5 (Herbicidal rate of 90% or more (almost completely withered))

Structure (SMILES): CCOc1ccc2c(-c3c(O)c(C)nn(C)c3=O)c(-c3ccccc3OC)sc2c1Cl [7-003]
- herbicidal effect on false cleavers (Q) ([1]; 320 g/ha): 5 (Herbicidal rate of 90% or more (almost completely withered))

Structure (SMILES): CCCC(=O)Oc1c(C)nn(C)c(=O)c1-c1c(-c2ccc(F)cc2)oc2ccc(C)cc12 [9-005]
- herbicidal effect on false cleavers (Q) ([1]; 390 g/ha): 4 (Herbicidal rate of 70% or more and less than 90%)

Structure (SMILES): COc1ccc(-c2oc3ccc(C)cc3c2-c2c(O)c(C)nn(C)c2=O)cc1 [9-007]
- herbicidal effect on false cleavers (Q) ([1]; 320 g/ha): 1 (Herbicidal rate of 5% or more and less than 20%)

Structure (SMILES): CCCC(=O)Oc1c(C)nn(C)c(=O)c1-c1c(-c2ccc(OC)cc2)oc2ccc(C)cc12 [9-008]
- herbicidal effect on false cleavers (Q) ([1]; 320 g/ha): 0 (Herbicidal rate of 5% or less (almost no effect))

- melting point: 209 to 211 °C
Structure (SMILES): COc1ccc2c(-c3c(O)c(Cl)nn(C)c3=O)c(-c3ccccc3OC)sc2c1 [Compound No. 3-088, 6-chloro-5-hydroxy-4-(6-methoxy-2-(2-methoxyphenyl)benzo[b]thiophen-3-yl)-2-methylpyridazin-3(2H)-one]
- c: corn, effect on crop grade [2]: 0 (Herbicidal rate of 5% or less (almost no effect))
- e: wheat, effect on crop grade [3]: 0 (Herbicidal rate of 5% or less (almost no effect))
- e: wheat, effect on crop grade [4]: 0 (Herbicidal rate of 5% or less (almost no effect))
- f: beet, effect on crop grade [5]: 5 (Herbicidal rate of 90% or more (almost completely withered))
- f: beet, effect on crop grade [6]: 3 (Herbicidal rate of 40% or more and less than 70%)
- c: corn, effect on crop grade [7]: 0 (Herbicidal rate of 5% or less (almost no effect))
- d: soybean, effect on crop grade [8]: 3 (Herbicidal rate of 40% or more and less than 70%)
- g: rapeseed, effect on crop grade [9]: 5 (Herbicidal rate of 90% or more (almost completely withered))
- effect on directly sowed rice (b) [10]: 0 (Herbicidal rate of 5% or less (almost no effect))
- d: soybean, effect on crop grade [11]: 1 (Herbicidal rate of 5% or more and less than 20%)
- Effect on crop, a: transplanted rice [12]: 0 (Herbicidal rate of 5% or less (almost no effect))
- g: rapeseed, effect on crop grade [13]: 5 (Herbicidal rate of 90% or more (almost completely withered))

- melting point: 216 to 218 °C
Structure (SMILES): COc1ccccc1-c1sc2cc(OCC(F)(F)F)ccc2c1-c1c(O)c(C)nn(C)c1=O [Compound No. 3-116, 5-hydroxy-4-(2-(2-methoxyphenyl)-6-(2,2,2-trifluoroethoxy)benzo[b]thiophen-3-yl)-2,6-di methylpyridazin-3 (2H)-one]
- c: corn, effect on crop grade [2]: 0 (Herbicidal rate of 5% or less (almost no effect))
- e: wheat, effect on crop grade [3]: 3 (Herbicidal rate of 40% or more and less than 70%)
- e: wheat, effect on crop grade [4]: 1 (Herbicidal rate of 5% or more and less than 20%)
- f: beet, effect on crop grade [5]: 5 (Herbicidal rate of 90% or more (almost completely withered))
- f: beet, effect on crop grade [6]: 5 (Herbicidal rate of 90% or more (almost completely withered))
- c: corn, effect on crop grade [7]: 0 (Herbicidal rate of 5% or less (almost no effect))
- d: soybean, effect on crop grade [8]: 5 (Herbicidal rate of 90% or more (almost completely withered))
- g: rapeseed, effect on crop grade [9]: 5 (Herbicidal rate of 90% or more (almost completely withered))
- effect on directly sowed rice (b) [10]: 5 (Herbicidal rate of 90% or more (almost completely withered))
- d: soybean, effect on crop grade [11]: 1 (Herbicidal rate of 5% or more and less than 20%)
- Effect on crop, a: transplanted rice [12]: 4 (Herbicidal rate of 70% or more and less than 90%)
- g: rapeseed, effect on crop grade [13]: 5 (Herbicidal rate of 90% or more (almost completely withered))
